{
  "source": "patent US20190247340A1",
  "about": "“EPILEPSY TREATMENT EMPLOYING KETOGENIC COMPOUNDS WHICH ARREST APOPTOSIS” (priority 2004, published 2019)",
  "test_system": "CA1 region of hippocampal organotypic cultures",
  "assay": "Kainic acid-induced neuronal cell death (experimental status epilepticus), propidium iodide uptake in hippocampal organotypic cultures",
  "format": "cell-based, rat",
  "procedure": "A seizure-induced neuronal cell death in vitro experimental model of status epilepticus was provided as follows. The neuroprotective potential of (R)-3-hydroxybutyrate sodium salt (BHB) (0.3 mM, 1 mM and 3 mM) was assessed by propidium iodide uptake into hippocampal organotypic cultures administered 1 μM KA for 24 h to induce experimental status epilepticus. Neuronal cell death is already observed at 24 h subsequent to KA-application therefore, it was of no value to administer to the cultures at this time-point. Test compound was, therefore, added to the cultures before significant neuronal cell death occurred.\nHippocampal organotypic slice cultures were prepared according to the Gähwiler roller-tube method (Gähwiler B H (1981) and Gähwiler et al (1997)) from nine rat pups aged between […].\nRat pups were killed by cervical dislocation, their brains rapidly removed and placed in a Petri dish. The meninges were removed from the caudal section of the cortex and then the brain was located with the ventral surface uppermost. Two transverse cuts were made, the first, at the level of the cerebellum to remove the brainstem, and the second, at the level of the optic chiasm to remove the forebrain. The cerebellum, midbrain and hindbrain were lifted upwards from the surrounding cortical tissue leaving one hippocampus embedded within each cortical hemisphere. An incision was made down the midline to separate the two cortical hemispheres. To separate the hippocampus from the surrounding cortical tissue three incisions were made around the hippocampus and then it was rolled out from the underlying tissue. The isolated hippocampus was then placed in a drop of ice-cold Gey's balanced salt solution containing 0.5% D-glucose (GBSS+G). The procedure was then repeated to isolate the remaining hippocampus. The whole procedure was performed using a Swift dissecting microscope and took between 10-15 mins thereby minimizing tissue deterioration.\nThe hippocampi were transferred to a Mcllwain tissue chopper and sectioned into a series of 400 μm thick slices. After sectioning, the hippocampi were placed in ice-cold GBSS+G and the slices gently teased apart. The slices were washed once in GBSS+G and the integrity of the slices checked under a higher magnification. If the slices had any tears, an opaque appearance or the cell body layers were not easily visible, they were discarded. A healthy slice has a yellow-brown colouration without any blackening in the cell body regions.\nTo adhere the hippocampal slice to a coverslip (Agar Scientific, UK), 20 μl of chicken plasma was placed in the middle of the coverslip followed by a hippocampal slice. The plasma was spread thinly over the surface of the coverslip, to ensure the slice was well coated. Then, 30 μl of thrombin (75 units/ml activity) was placed over the slice and mixed thoroughly with the chicken plasma. The plasma-thrombin mixture was left for approximately 60 s until a clot of jelly-like consistency had formed. The coverslip was then placed in a test-tube (Nunclon, UK) which contained 750 μl of pre-warmed culture media (37° C.). Culture media consisted of 50% basal media Earles, 25% Hank's balanced salt solution, 25% heat inactivated horse serum, […] L-glutamine and 0.5% D-glucose. The test tubes were sealed with a screw top lid and placed in a custom made roller-drum (Medical School Workshop, University of Nottingham) at an angle of 5°, rotating at 10 revolutions per hour in a dry incubator at 37° C.\nAfter 48 h in vitro, 500 μl of media was removed and the cultures were incubated in culture media containing a combination of anti-mitotics, which consisted of 5-fluorodeoxyuridine, cytosine-β-D-arabino-furanoside (ARA-C) and uridine each at a concentration of 1 μM. After a further 24 h, 500 μl of media was removed and replaced with 500 μl of new culture media containing no anti-mitotics. […]",
  "note": "Values joined by “and” are separate entries in the source; they are usually repeats but may differ in a detail not shown here. Equal values may be shown once.",
  "data": [
    {"molecule": "C=C(C)[C@H]1CN[C@H](C(=O)O)[C@H]1CC(=O)O", "note": "[KA, kainic acid, reference compound]", "values": [
      {"measurement": "percentage propidium iodide uptake (mean)", "setting": "KA 1 μM alone for 24 h, then washout, assessed at 7 d, n=12, control cultures 1.81", "value": "6.97±2.03% and 6.97%"},
      {"measurement": "percentage propidium iodide uptake (mean)", "setting": "KA 1 μM alone for 24 h, assessed at 24 h, n=12, control cultures 1.68", "value": "8.89±1.78% and 8.89%"}
    ]},
    {"molecule": "C[C@@H](O)CC(=O)[O-].[Na+]", "note": "[KTX0101, sodium salt of (R)-3-hydroxybutyrate]", "values": [
      {"measurement": "percentage propidium iodide uptake (mean)", "setting": "KTX0101 0.3 mM added 30 mins after KA 1 μM, assessed at 24 h, n=12", "value": 6.48, "unit": "%"},
      {"measurement": "percentage propidium iodide uptake (mean)", "setting": "KTX0101 0.3 mM for 7 d following KA 1 μM for 24 h, assessed at 7 d, n=12", "value": 1.54, "unit": "%"},
      {"measurement": "percentage propidium iodide uptake (mean)", "setting": "KTX0101 0.3 mM for 7 d following KA 1 μM for 24 h, assessed at 7 d, n=12, listed as BHB", "value": "1.54±0.33% and 1.54%"},
      {"measurement": "percentage propidium iodide uptake (mean)", "setting": "KTX0101 1.0 mM added 30 mins after KA 1 μM, assessed at 24 h, n=13", "value": 4.89, "unit": "%"},
      {"measurement": "percentage propidium iodide uptake (mean)", "setting": "KTX0101 1.0 mM for 7 d following KA 1 μM for 24 h, assessed at 7 d, n=13", "value": 1.05, "unit": "%"},
      {"measurement": "percentage propidium iodide uptake (mean)", "setting": "KTX0101 1.0 mM for 7 d following KA 1 μM for 24 h, assessed at 7 d, n=13, listed as BHB", "value": "1.05±0.29% and 1.05%"},
      {"measurement": "percentage propidium iodide uptake (mean)", "setting": "KTX0101 3.0 mM added 30 mins after KA 1 μM, assessed at 24 h, n=13", "value": 4.72, "unit": "%"},
      {"measurement": "percentage propidium iodide uptake (mean)", "setting": "KTX0101 3.0 mM for 7 d following KA 1 μM for 24 h, assessed at 7 d, n=13", "value": 1.25, "unit": "%"},
      {"measurement": "percentage propidium iodide uptake (mean)", "setting": "KTX0101 3.0 mM for 7 d following KA 1 μM for 24 h, assessed at 7 d, n=13, listed as BHB", "value": "1.25±0.21% and 1.25%"}
    ]}
  ]
}
